Laboratory results published in patent US7943748B2, “Glucitol derivative, prodrug thereof and salt thereof, and therapeutic agent containing the same for diabetes” (Chugai Seiyaku Kabushiki Kaisha, priority 2004, dated 2011).

Columns and labels:
[1] = molecular target: T1, human SGLT2 (Homo sapiens, UniProt P31639); test: Inhibition of methyl-α-D-glucopyranoside intake in human SGLT2 stable expression CHO cells; format: cell-based; settings: methyl-α-D-(U-14C)glucopyranoside intake, 37° C., 45 minutes
T1 construct: expressed in transfected cells; host or cells: CHO-K1
T1 sequence (P31639 1-672): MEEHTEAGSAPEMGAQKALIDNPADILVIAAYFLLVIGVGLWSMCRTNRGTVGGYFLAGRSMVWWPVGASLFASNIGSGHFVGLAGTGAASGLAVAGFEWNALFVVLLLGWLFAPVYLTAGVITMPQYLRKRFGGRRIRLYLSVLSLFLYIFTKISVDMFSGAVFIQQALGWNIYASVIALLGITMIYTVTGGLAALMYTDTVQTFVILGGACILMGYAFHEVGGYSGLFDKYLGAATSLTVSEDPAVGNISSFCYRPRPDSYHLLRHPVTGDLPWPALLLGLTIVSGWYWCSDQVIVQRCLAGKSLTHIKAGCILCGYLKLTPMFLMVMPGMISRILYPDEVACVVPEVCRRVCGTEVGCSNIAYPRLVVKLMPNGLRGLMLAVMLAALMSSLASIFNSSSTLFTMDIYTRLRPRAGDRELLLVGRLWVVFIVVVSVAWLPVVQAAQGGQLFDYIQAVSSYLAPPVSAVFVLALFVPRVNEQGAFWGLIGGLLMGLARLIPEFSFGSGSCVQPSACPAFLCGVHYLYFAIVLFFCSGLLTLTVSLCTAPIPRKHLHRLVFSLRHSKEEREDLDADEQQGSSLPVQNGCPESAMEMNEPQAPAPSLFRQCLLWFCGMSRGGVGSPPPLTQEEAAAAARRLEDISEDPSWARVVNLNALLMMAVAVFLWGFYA
Description: Test for Confirming Action of Inhibiting Human Na^+-Glucose Co-Transporters (SGLT1 and SGLT2)
(2) Preparation of Human SGLT2 Expression Vector
PCR was performed by KOD+DNA polymerase by taking a human kidney-derived cDNA library (a product of Clontech) as a template with the use of a synthesized DNA primer to amplify human SGLT2 cDNA. […] From the proliferated E. coli, a plasmid was purified according to the usual way. By taking this plasmid as a template, PCR was performed by KOD+DNA polymerase with the use of a synthetic DNA primer into which restriction enzyme recognition sites had been introduced to amplify human SGLT2 cDNA (a fragment added with Xho I recognition site on the upstream side and a Hind III recognition site on the downstream side). This amplified fragment was subjected to Xho I and Hind III digestion to connect the digested fragments to their recognition sites of the expression vector pcDNA 3.1(−) with the use of the Rapid DNA Ligation kit. The connected expression vector was introduced into E. coli competent cells (DH5α) and proliferated in an ampicillin-containing LB medium to obtain a human SGLT2 expression vector according to the usual way.
(3) Preparation of Human SGLT1 Stable Expression Cell and Human SGLT2 Stable Expression Cell […]

[2] = Test for determining blood half-life in rat; format: in vivo; settings: iv; SD male rat, intravenously administered, dosage 10 mg/kg, plasma, LC-MS/MS, non-compartmental analysis, half-life in the final layer
Description: Test for Determining Blood Half-Life in Rat
A test compound was intravenously administered to a SD male rat (8-weeks old, Japan SLC) and the blood was collected 2 minutes, 5 minutes, 15 minutes, 30 minutes, 1 hour, 2 hours, 4 hours, 6 hours and 8 hours after administration, respectively. The obtained blood was centrifuged to obtain plasma. The plasma sample (0.01 mL) and water (0.4 mL) were added to a tube added with an internal standard substance of phenyloin (250 ng), and diethyl ether (2 mL) was added thereto and the obtained solution was stirred for five minutes, and then centrifuged for 10 minutes and an organic layer was recovered and subjected to nitrogen dryness, and a mobile phase was added to the obtained solid to dissolve it and the resulting solution was taken as a sample for determination.
The sample for determination was injected into LC-MS/MS and determined under the following conditions. • Column: ODS (2.0×150 mm) • Mobile Phase Acetonitrile/10 mM ammonium acetate=4/6 (v/v) • Flow Rate: 0.2 mL/min • Amount of Sample Injected: 10 μL • Mass Analysis: ESI (+)
The plasma concentration obtained by the LC-MS/MS method was subjected to non-compartmental analysis with the use of the WinNonlin standard made by Pharsight Corporation to calculate pharmacokinetic parameters.

**Q.** Which results are given for `OC[C@H]1O[C@@H](c2cc(Cc3cc4ccccc4s3)cc3ccccc23)[C@H](O)[C@@H](O)[C@@H]1O` [Example 1, (2S,3R,4R,5S,6R)-2-[3-(Benzo[b]thiophen-2-ylmethyl)-naphthalen-1-yl]-6-hydroxymethyl-tetrahydropyran-3,4,5-triol]?
**A.** IC50 [1]: 18 nM; half-life [2]: 8.21 h

**Q.** Which IC50 [1] does the source give for `Cc1ccc(Cc2cc([C@@H]3O[C@H](CO)[C@@H](O)[C@H](O)[C@H]3O)c3ccccc3c2)s1` [Example 8, (2R,3S,4R,5R,6S)-2-hydroxymethyl-6-[3-(5-methylthiophen-2-ylmethyl)naphthalen-1-yl]tetrahydropyran-3,4,5-triol] here?
**A.** 18 nM
